From patent US8772304B2, “Benzimidazole inhibitors of leukotriene production” (Boehringer Ingelheim International GmbH, priority 2010, dated 2014)

Columns and labels:
[1] = biological target: recombinant human FLAP protein (Homo sapiens (Human), UniProt P20292); test: FLAP binding assay (Scintillation Proximity Assay, displacement of iodinated FLAP inhibitor); conditions: displacement of [125I]L-691,831; membranes of sf9 cells expressing recombinant human FLAP; read-out: hFLAP binding IC50
Experimental: Compounds are assessed for the ability to bind to FLAP in a binding assay that measures compound-specific displacement of an iodinated (^125I) FLAP inhibitor via a Scintillation Proximity Assay format (adapted from S. Charleson et al., Mol. Pharmacol., 1992, 41, 873-879).
Cell pellets produced from sf9 insect cells expressing recombinant human FLAP protein are resuspended in buffer A [15 mM Tris-HCl (pH 7.5), 2 mM MgCl2, 0.3 mM EDTA, 1 mM PMSF]. The cells are lysed with a Dounce homogenizer and the material is centrifuged at 10,000×g for 10 minutes. The supernatant is then collected and centrifuged at 100,000×g for 60 minutes. To prepare membrane protein for an assay, an aliquot of the 100,000×g pellet is resuspended in 1 ml of buffer A, Dounce homogenized, and finally subjected to polytron mixing (30 seconds). Membrane protein (25 μl, 5 μg) is mixed with WGA SPA beads (Amersham) and stirred for 1 h. […] (final concentrations: beads, 200 μg/well; protein, 5 μg/well; [^125I] probe, 0 08 nM/well (17 nCi/well). The plates are shaken for 2 h before reading on a Microbeta plate reader. Non-specific binding is determined by the addition of 10 μM cold L-691,831 compound.

[2] = tested on: synthesis of LTB4 in human whole blood; test: human whole blood LTB4 production inhibition assay; assay type: cell-based; conditions: heparinized human whole blood, calcimycin 20 μM stimulation, plasma LTB4; read-out: hWB IC50
Experimental: Compounds are additionally tested in a human whole blood assay to determine their ability to inhibit the synthesis of LTB4 in a cellular system. Compounds are combined with heparinized human whole blood and incubated for 15 minutes at 37° C. Calcimycin (20 μM final, prepared in phosphate-buffered saline, pH 7.4) is then added and the mixture is incubated for another 30 minutes at 37° C. The samples are centrifuged for 5 min at low speed (1500×g) and the plasma layer is removed. Plasma LTB4 concentrations are then measured using an antibody-based homogenous time-resolved fluorescence method (CisBio, Bedford, Mass.).

Sequence of recombinant human FLAP protein (P20292 whole entry): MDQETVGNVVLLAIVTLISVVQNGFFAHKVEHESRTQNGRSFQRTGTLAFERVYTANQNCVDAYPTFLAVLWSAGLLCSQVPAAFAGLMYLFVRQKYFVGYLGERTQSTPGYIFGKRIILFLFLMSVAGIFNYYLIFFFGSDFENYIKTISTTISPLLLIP

| Structure (SMILES) | IC50 [1] [µM] | IC50 [2] [µM] |
| --- | --- | --- |
| CC(C)(C)n1c(-c2nc(C#N)ccc2-n2cncn2)nc2cc(-c3cnc(N)nc3)ccc21 [Example 1, 6-[5-(2-Amino-pyrimidin-5-yl)-1-tert-butyl-1H-benzimidazol-2-yl]-5-1,2,4-triazol-1-yl-pyridine-2-carbonitrile] | 0.0071 | 0.03 |
| Cc1ncn(-c2ccc(C#N)nc2-c2nc3cc(-c4cnc(N)nc4)ccc3n2C(C)(C)C)n1 [Example 2, 6-[5-(2-Amino-pyrimidin-5-yl)-1-tert-butyl-1H-benzimidazol-2-yl]-5-(3-methyl-1,2,4-triazol-1-yl)-pyridine-2-carbonitrile] | 0.0042 | 0.036 |
| Cc1ncnn1-c1ccc(C#N)nc1-c1nc2cc(-c3cnc(N)nc3)ccc2n1C(C)(C)C [Example 3, 6-[5-(2-Amino-pyrimidin-5-yl)-1-tert-butyl-1H-benzimidazol-2-yl]-5-(5-methyl-1,2,4-triazol-1-yl)-pyridine-2-carbonitrile] | 0.0059 | 0.089 |
| CC(C)(C)n1c(-c2nc(C3CC3)ccc2-n2cncn2)nc2cc(-c3cnc(N)nc3)ccc21 [Example 4, 5-[1-tert-Butyl-2-(6-cyclopropyl-3-1,2,4-triazol-1-yl-pyridin-2-yl)-1H-benzimidazol-5-yl]-pyrimidin-2-ylamine] | 0.013 | 0.14 |
| Cc1ncn(-c2ccc(C#N)nc2-c2nc3cc(-c4cnc(N)nc4)ccc3n2C2(C)CCC2)n1 [Example 5, 6-[5-(2-Amino-pyrimidin-5-yl)-1-(1-methyl-cyclobutyl)-1H-benzimidazol-2-yl]-5-(3-methyl-1,2,4-triazol-1-yl)-pyridine-2-carbonitrile] | 0.029 | 0.256 |
| Cc1ncnn1-c1ccc(C#N)nc1-c1nc2cc(-c3cnc(N)nc3)ccc2n1C1(C)CCC1 [Example 6, 6-[5-(2-Amino-pyrimidin-5-yl)-1-(1-methyl-cyclobutyl)-1H-benzimidazol-2-yl]-5-(5-methyl-1,2,4-triazol-1-yl)-pyridine-2-carbonitrile] | 0.086 | 0.894 |
| CNC(=O)c1cccnc1-c1nc2cc(-c3cnc(N)nc3)ccc2n1C(C)(C)C [Example 8, 2-[5-(2-Amino-pyrimidin-5-yl)-1-tert-butyl-1H-benzimidazol-2-yl]-N-methyl-nicotinamide] | 0.62 | 1.7 |
| COC(=O)c1ccc(C#N)nc1-c1nc2cc(-c3cnc(N)nc3)ccc2n1C(C)(C)C [Example 9, 2-[5-(2-Amino-pyrimidin-5-yl)-1-tert-butyl-1H-benzimidazol-2-yl]-6-cyano-nicotinic acid methyl ester] | 0.11 | 0.387 |
| CNC(=O)c1ccc(C#N)nc1-c1nc2cc(-c3cnc(N)nc3)ccc2n1C(C)(C)C [Example 10, 2-[5-(2-Amino-pyrimidin-5-yl)-1-tert-butyl-1H-benzimidazol-2-yl]-6-cyano-N-methyl-nicotinamide] | 0.138 | 0.422 |
| CC(C)(C)Oc1cccc(-c2nc3cc(-c4cnc(N)nc4)ccc3n2C(C)(C)C)n1 [Example 13, 5-[2-(6-tert-Butoxy-pyridin-2-yl)-1-tert-butyl-1H-benzimidazol-5-yl]-pyrimidin-2-ylamine] | 0.051 | – |
| CC(C)(C)n1c(-c2cccc(F)n2)nc2cc(-c3cnc(NCc4cccc(F)n4)nc3)ccc21 [Example 15, {5-[1-tert-Butyl-2-(6-fluoro-pyridin-2-yl)-1H-benzimidazol-5-yl]-pyrimidin-2-yl}-(6-fluoro-pyridin-2-ylmethyl)-amine] | 0.87 | – |
| CC(C)(C)n1c(-c2cccnc2-n2cncn2)nc2cc(-c3cnc(N)nc3)ccc21 [Example 20, 5-[1-tert-Butyl-2-(2-1,2,4-triazol-1-yl-pyridin-3-yl)-1H-benzimidazol-5-yl]-pyrimidin-2-ylamine] | 0.019 | 0.447 |
| CC(C)(C)n1c(-c2cc(F)cnc2-n2cncn2)nc2cc(-c3cnc(N)nc3)ccc21 [Example 21, 5-[1-tert-Butyl-2-(5-fluoro-2-1,2,4-triazol-1-yl-pyridin-3-yl)-1H-benzimidazol-5-yl]-pyrimidin-2-ylamine] | 0.02 | 0.253 |
| CC(C)(C)n1c(-c2cc(Cl)cnc2-n2cncn2)nc2cc(-c3cnc(N)nc3)ccc21 [Example 22, 5-[1-tert-Butyl-2-(5-chloro-2-1,2,4-triazol-1-yl-pyridin-3-yl)-1H-benzimidazol-5-yl]-pyrimidin-2-ylamine] | 0.0032 | 0.116 |
| CC(C)(C)n1c(-c2cc(Br)cnc2-n2cncn2)nc2cc(-c3cnc(N)nc3)ccc21 [Example 23, 5-[2-(5-Bromo-2-1,2,4-triazol-1-yl-pyridin-3-yl)-1-tert-butyl-1H-benzimidazol-5-yl]-pyrimidin-2-ylamine] | 0.004 | 0.081 |
| Cc1ncnn1-c1ncccc1-c1nc2cc(-c3cnc(N)nc3)ccc2n1C(C)(C)C [Example 24, 5-{1-tert-Butyl-2-[2-(5-methyl-1,2,4-triazol-1-yl)-pyridin-3-yl]-1H-benzimidazol-5-yl}-pyrimidin-2-ylamine] | 0.023 | 0.242 |
| Cc1ncn(-c2ncccc2-c2nc3cc(-c4cnc(N)nc4)ccc3n2C(C)(C)C)n1 [Example 25, 5-{1-tert-Butyl-2-[2-(3-methyl-1,2,4-triazol-1-yl)-pyridin-3-yl]-1H-benzimidazol-5-yl}-pyrimidin-2-ylamine] | 0.012 | 0.278 |
| CC(C)(C)n1c(-c2cc(C#N)cnc2-n2cncn2)nc2cc(-c3cnc(N)nc3)ccc21 [Example 26, 5-[5-(2-Amino-pyrimidin-5-yl)-1-tert-butyl-1H-benzimidazol-2-yl]-6-1,2,4-triazol-1-yl-nicotinonitrile] | 0.01 | 0.075 |
| CC(C)(C)n1c(-c2ccc(N3CCOCC3)nc2)nc2cc(-c3cnc(N)nc3)ccc21 [Example 30, 5-[1-tert-Butyl-2-(6-morpholin-4-yl-pyridin-3-yl)-1H-benzimidazol-5-yl]-pyrimidin-2-ylamine] | 0.18 | – |
| CCOc1ncccc1-c1nc2cc(-c3cnc(N)nc3)ccc2n1C(C)(C)C [Example 33, 5-[1-tert-Butyl-2-(2-ethoxy-pyridin-3-yl)-1H-benzimidazol-5-yl]-pyrimidin-2-ylamine] | 0.034 | – |

The remaining lines, values ahead:

| IC50 [1] [µM] | IC50 [2] [µM] | Structure (SMILES) |
| --- | --- | --- |
| 0.54 | 3.1 | COC(=O)c1cccnc1-c1nc2cc(-c3cnc(N)nc3)ccc2n1C(C)(C)C [Example 7, 2-[5-(2-Amino-pyrimidin-5-yl)-1-tert-butyl-1H-benzimidazol-2-yl]-nicotinic acid methyl esler] |
| 0.046 | – | COc1cccc(-c2nc3cc(-c4cnc(N)nc4)ccc3n2C(C)(C)C)n1 [Example 11, 5-[1-tert-Butyl-2-(6-methoxy-pyridin-2-yl)-1H-benzimidazol-5-yl]-pyrimidin-2-ylamine] |
| 0.7 | – | CC(C)(C)n1c(-c2ccccn2)nc2cc(-c3cnc(N)nc3)ccc21 [Example 12, 5-(1-tert-Butyl-2-pyridin-2-yl-1H-benzimidazol-5-yl)-pyrimidin-2-ylamine] |
| 0.279 | – | CC(C)(C)n1c(-c2cccc(F)n2)nc2cc(-c3cnc(N)nc3)ccc21 [Example 14, 5-[1-tert-Butyl-2-(6-fluoro-pyridin-2-yl)-1H-benzimidazol-5-yl]-pyrimidin-2-ylamine] |
| 0.96 | – | COc1cccnc1-c1nc2cc(-c3cnc(N)nc3)ccc2n1C(C)(C)C [Example 16, 5-[1-tert-Butyl-2-(3-methoxy-pyridin-2-yl)-1H-benzimidazol-5-yl]-pyrimidin-2-ylamine] |
| 0.058 | 0.058 | COc1cc(-c2nc3cc(-c4cnc(N)nc4)ccc3n2C(C)(C)C)c(F)cn1 [Example 17, 5-[1-tert-Butyl-2-(5-fluoro-2-methoxy-pyridin-4-yl)-1H-benzimidazol-5-yl]-pyrimidin-2-ylamine] |
| 0.45 | 0.449 | CC(C)(C)n1c(-c2ccncc2)nc2cc(-c3cnc(N)nc3)ccc21 [Example 18, 5-(1-tert-Butyl-2-pyridin-4-yl-1H-benzimidazol-5-yl)-pyrimidin-2-ylamine] |
| 0.3 | – | COc1cncc(-c2nc3cc(-c4cnc(N)nc4)ccc3n2C(C)(C)C)c1 [Example 29, 5-[1-tert-Butyl-2-(5-methoxy-pyridin-3-yl)-1H-benzimidazol-5-yl]-pyrimidin-2-ylamine] |
| 0.542 | – | CC(C)(C)n1c(-c2cccnc2)nc2cc(-c3cnc(N)nc3)ccc21 [Example 31, 5-(1-tert-Butyl-2-pyridin-3-yl-1H-benzimidazol-5-yl)-pyrimidin-2-ylamine] |
| 0.22 | – | COc1ncccc1-c1nc2cc(-c3cnc(N)nc3)ccc2n1C(C)(C)C [Example 32, 5-[1-tert-Butyl-2-(2-methoxy-pyridin-3-yl)-1H-benzimidazol-5-yl]-pyrimidin-2-ylamine] |
